Among the data in publication PMC12136037, “Type II kinase inhibitors that target Parkinson’s disease–associated LRRK2” (Science Advances, 2025) are dTm values, retold here.

What all share (assay): DSF 100 kinase selectivity screen;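 also: compound tested at 20 µM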
Holding throughout (assay type): binding

Assay [1] concerns the target T1, ~100 representative kinases (Homo sapiens, UniProt O94804).
T1 construct: Recombinant protein kinase domains with a concentration of 2 μM
Particulars: Protein STK10; DSF; average of three replicates. The method in brief:
(§1)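 Each kinase domain, at 2 μM, is mixed with 20 μM test compound and SYPRO Orange in Hepes (20 mM, pH 7.5) with 500 mM NaCl. Temperature is then raised at 3°C/min and fluorescence-monitored unfolding yields the melting temperature change, ΔTm in degrees Celsius.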

In assay [2] the target is T2, ~100 representative kinases (Homo sapiens, UniProt O43293).
T2 construct: Recombinant protein kinase domains with a concentration of 2 μM
Particulars: Protein DAPK3; average of three replicates. The method in brief:
as §1

Assay [3] addresses T3, ~100 representative kinases (Homo sapiens, UniProt Q13153).
T3 construct: Recombinant protein kinase domains with a concentration of 2 μM
Conditions: protein PAK1; average of three replicates. The procedure, abridged:
as §1

The target in assay [4] is T4, ~100 representative kinases (Homo sapiens, UniProt P53779).
T4 construct: Recombinant protein kinase domains with a concentration of 2 μM
Particulars: protein MAPK10; average of three replicates. The method in brief:
as §1

Assay [5] deals with T5, ~100 representative kinases (Homo sapiens, UniProt Q09013).
T5 construct: Recombinant protein kinase domains with a concentration of 2 μM
T5 sequence (Q09013 1-629): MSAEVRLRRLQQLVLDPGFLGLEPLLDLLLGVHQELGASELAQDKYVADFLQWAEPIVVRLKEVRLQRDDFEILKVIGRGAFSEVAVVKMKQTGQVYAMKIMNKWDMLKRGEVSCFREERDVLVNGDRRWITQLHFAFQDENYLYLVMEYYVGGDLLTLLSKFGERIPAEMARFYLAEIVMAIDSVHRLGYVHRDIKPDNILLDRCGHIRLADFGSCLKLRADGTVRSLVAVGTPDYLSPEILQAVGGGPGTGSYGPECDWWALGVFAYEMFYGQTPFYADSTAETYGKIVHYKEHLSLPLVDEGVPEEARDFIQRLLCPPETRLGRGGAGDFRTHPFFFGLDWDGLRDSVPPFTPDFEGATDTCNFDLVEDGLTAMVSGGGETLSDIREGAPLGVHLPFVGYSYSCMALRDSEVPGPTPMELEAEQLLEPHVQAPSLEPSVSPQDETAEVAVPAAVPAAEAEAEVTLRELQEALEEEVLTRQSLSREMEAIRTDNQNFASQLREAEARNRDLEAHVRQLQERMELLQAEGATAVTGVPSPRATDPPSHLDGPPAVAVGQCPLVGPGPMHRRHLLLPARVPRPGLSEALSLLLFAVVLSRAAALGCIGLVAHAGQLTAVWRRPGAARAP
Particulars: Protein DMPK1; average of three replicates. The procedure, abridged:
as §1

Assay [6] has as its target T6, ~100 representative kinases (Homo sapiens, UniProt P21802).
T6 construct: Recombinant protein kinase domains with a concentration of 2 μM
Particulars: protein FGFR2; average of three replicates. The method in brief:
as §1

Assay [7] addresses T7, ~100 representative kinases (Homo sapiens, UniProt Q14680).
T7 construct: Recombinant protein kinase domains with a concentration of 2 μM
Particulars: protein MELK; average of three replicates. The method in brief:
as §1

Assay [8] deals with T8, ~100 representative kinases (Homo sapiens, UniProt P00519).
T8 construct: Recombinant protein kinase domains with a concentration of 2 μM
Conditions: Protein ABL1; average of three replicates. The method in brief: as §1

The target in assay [9] is T9, ~100 representative kinases (Homo sapiens, UniProt Q86V86).
T9 construct: Recombinant protein kinase domains with a concentration of 2 μM
Conditions: protein PIM3; average of three replicates. The method in brief:
as §1

Assay [10] has as its target T10, ~100 representative kinases (Homo sapiens, UniProt O14976).
T10 construct: Recombinant protein kinase domains with a concentration of 2 μM
T10 sequence (O14976 1-1311): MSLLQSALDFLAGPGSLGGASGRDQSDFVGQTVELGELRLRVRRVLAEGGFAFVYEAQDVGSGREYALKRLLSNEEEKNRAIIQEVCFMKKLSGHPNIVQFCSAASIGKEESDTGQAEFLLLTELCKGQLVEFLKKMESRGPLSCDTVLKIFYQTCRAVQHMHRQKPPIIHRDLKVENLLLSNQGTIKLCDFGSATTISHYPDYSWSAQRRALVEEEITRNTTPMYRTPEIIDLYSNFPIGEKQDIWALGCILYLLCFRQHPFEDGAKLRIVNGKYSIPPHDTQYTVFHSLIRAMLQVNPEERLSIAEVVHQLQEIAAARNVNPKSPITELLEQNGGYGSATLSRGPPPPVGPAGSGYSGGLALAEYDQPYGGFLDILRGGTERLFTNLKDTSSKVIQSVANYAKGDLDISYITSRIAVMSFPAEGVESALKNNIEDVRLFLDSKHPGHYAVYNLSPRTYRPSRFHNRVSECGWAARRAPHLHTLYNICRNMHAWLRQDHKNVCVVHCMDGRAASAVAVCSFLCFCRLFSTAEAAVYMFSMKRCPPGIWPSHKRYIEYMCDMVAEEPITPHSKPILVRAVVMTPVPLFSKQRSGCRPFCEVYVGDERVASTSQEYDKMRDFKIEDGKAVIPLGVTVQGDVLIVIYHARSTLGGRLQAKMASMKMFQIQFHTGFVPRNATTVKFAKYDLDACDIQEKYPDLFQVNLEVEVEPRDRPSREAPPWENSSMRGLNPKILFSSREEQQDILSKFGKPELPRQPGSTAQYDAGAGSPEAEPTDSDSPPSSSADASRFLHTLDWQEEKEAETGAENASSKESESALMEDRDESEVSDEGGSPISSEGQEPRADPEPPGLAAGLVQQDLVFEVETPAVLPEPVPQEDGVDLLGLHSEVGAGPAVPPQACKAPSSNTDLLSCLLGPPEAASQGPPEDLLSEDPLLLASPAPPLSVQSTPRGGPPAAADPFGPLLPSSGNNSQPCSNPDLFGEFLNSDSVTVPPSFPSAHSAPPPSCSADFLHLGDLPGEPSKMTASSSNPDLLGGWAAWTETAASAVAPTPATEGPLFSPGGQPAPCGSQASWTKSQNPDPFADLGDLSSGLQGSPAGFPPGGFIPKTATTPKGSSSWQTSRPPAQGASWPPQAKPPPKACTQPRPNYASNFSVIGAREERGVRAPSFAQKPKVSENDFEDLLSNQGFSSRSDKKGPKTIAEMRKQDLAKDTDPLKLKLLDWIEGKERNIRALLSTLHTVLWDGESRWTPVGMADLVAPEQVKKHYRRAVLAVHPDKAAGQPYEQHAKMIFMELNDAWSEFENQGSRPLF
Conditions: protein GAK; average of three replicates. The method in brief:
as §1

For assay [11], the target named is T11, ~100 representative kinases (Homo sapiens, UniProt P34947).
T11 construct: Recombinant protein kinase domains with a concentration of 2 μM
Particulars: protein GPRK5; average of three replicates. The procedure, abridged: as §1

In assay [12] the target is T12, ~100 representative kinases (Homo sapiens, UniProt Q2M2I8).
T12 construct: Recombinant protein kinase domains with a concentration of 2 μM
Particulars: Protein AAK1; average of three replicates. The method in brief: as §1

T3 sequence (Q13153 whole entry, the tested form may be a part): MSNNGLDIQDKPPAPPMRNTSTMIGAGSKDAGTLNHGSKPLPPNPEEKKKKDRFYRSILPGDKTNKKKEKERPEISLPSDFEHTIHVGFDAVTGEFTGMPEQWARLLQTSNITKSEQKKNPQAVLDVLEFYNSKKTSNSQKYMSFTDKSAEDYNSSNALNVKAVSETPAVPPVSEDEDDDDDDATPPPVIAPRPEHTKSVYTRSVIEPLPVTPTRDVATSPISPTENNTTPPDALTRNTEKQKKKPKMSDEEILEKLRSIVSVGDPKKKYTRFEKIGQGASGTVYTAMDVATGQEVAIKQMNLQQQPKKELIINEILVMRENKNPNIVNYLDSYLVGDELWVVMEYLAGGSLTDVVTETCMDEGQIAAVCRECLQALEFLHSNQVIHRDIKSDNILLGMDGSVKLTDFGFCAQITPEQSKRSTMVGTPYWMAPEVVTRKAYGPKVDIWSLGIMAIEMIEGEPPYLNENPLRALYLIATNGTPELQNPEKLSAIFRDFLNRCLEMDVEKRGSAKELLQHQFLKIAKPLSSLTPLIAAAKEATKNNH
T1 sequence (O94804 whole entry, the tested form may be a part): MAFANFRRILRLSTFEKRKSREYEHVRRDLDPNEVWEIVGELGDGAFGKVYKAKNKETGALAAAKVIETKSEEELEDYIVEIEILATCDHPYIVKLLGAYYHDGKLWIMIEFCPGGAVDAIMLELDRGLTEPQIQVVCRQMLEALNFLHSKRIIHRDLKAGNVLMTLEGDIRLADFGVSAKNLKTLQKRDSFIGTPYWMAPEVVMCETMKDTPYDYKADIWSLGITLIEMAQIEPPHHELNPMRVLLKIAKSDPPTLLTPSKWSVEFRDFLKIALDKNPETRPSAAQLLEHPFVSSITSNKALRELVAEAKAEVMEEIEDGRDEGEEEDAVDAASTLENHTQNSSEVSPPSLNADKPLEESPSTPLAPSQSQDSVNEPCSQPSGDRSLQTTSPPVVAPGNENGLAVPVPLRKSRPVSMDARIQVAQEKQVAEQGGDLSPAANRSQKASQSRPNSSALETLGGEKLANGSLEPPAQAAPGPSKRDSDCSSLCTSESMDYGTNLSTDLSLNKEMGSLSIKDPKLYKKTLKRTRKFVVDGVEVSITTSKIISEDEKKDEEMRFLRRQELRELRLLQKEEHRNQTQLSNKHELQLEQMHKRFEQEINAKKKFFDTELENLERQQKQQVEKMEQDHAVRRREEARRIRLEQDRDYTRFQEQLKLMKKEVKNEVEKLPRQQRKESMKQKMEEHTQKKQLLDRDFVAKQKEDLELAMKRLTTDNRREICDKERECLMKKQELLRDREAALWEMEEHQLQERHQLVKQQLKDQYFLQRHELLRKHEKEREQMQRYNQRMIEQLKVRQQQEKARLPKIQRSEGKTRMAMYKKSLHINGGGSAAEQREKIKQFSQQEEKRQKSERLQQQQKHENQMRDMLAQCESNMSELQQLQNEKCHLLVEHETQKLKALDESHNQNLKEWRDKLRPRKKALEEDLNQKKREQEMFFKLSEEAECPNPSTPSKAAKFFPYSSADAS
T6 sequence (P21802 22-821): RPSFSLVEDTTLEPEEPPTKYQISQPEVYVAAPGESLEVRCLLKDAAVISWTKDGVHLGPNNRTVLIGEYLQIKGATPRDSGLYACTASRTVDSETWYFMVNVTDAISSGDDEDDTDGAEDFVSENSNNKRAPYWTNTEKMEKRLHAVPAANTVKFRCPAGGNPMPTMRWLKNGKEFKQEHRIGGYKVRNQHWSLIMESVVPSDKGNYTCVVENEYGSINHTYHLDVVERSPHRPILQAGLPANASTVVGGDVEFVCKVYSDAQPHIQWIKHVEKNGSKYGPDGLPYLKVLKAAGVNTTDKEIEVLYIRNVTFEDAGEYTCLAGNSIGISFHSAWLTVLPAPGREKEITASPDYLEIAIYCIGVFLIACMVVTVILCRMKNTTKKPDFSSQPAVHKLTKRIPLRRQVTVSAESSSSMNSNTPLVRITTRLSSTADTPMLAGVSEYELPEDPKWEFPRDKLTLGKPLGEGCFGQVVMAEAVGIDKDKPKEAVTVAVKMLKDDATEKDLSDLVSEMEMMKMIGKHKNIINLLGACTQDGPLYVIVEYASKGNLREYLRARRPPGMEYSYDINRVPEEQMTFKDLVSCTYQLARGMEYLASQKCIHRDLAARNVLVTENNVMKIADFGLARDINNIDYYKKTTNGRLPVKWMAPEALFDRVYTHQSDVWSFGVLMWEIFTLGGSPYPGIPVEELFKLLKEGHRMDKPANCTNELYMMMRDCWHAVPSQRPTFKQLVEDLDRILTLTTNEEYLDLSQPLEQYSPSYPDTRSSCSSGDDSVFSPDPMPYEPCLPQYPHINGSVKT
T4 sequence (P53779 whole entry, the tested form may be a part): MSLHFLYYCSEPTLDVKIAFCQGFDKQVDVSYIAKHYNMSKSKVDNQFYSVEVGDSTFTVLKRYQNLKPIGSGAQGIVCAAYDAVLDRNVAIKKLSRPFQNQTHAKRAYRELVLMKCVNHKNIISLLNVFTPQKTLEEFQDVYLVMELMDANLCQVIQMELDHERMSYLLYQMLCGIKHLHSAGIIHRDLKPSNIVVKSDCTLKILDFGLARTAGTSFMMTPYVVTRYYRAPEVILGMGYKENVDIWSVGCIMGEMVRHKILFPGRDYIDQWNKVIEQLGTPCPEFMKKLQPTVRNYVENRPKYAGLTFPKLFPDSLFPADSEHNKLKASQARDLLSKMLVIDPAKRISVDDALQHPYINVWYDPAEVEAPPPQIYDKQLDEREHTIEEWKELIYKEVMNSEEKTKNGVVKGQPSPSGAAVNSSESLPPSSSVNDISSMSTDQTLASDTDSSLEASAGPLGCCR
T8 sequence (P00519 whole entry, the tested form may be a part): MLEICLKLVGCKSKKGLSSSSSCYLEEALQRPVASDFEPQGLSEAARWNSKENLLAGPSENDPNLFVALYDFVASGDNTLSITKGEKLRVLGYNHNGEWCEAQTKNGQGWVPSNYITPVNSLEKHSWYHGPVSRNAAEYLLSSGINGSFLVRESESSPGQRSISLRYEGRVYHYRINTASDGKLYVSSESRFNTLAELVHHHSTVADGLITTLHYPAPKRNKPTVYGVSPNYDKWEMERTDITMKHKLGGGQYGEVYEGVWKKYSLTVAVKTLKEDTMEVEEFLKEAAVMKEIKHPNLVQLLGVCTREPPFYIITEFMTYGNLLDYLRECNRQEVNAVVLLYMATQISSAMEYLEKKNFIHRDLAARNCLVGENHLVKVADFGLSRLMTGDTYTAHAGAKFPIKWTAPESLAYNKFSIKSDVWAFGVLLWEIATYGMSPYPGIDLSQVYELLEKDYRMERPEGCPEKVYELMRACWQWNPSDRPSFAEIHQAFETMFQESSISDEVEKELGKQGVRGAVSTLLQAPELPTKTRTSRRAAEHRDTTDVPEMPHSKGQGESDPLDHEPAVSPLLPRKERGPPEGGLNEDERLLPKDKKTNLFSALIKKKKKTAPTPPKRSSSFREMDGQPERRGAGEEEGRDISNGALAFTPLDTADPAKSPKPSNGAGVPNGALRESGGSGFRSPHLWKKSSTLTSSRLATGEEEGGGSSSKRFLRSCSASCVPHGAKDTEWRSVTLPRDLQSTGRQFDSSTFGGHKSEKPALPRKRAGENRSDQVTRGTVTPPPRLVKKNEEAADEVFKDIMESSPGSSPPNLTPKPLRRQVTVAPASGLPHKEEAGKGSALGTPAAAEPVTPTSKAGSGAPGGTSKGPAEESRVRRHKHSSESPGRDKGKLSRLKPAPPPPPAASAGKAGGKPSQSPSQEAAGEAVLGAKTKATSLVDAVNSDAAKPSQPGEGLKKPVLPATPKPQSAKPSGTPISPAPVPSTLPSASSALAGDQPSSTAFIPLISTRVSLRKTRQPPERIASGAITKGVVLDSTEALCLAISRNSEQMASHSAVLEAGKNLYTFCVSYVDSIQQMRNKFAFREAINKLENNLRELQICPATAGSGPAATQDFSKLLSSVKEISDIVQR
T2 sequence (O43293 whole entry, the tested form may be a part): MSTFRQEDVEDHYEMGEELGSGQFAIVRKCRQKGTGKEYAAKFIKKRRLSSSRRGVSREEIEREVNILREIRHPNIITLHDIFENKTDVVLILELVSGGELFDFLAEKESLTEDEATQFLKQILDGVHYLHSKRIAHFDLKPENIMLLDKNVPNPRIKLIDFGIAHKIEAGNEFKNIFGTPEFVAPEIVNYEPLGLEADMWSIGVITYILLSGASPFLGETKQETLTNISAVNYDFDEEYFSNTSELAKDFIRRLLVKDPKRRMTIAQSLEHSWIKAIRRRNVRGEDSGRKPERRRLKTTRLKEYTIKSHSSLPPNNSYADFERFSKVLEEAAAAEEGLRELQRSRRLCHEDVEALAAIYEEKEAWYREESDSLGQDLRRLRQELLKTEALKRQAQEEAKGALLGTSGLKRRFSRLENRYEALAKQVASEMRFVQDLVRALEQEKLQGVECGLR

Consider `Cc1ccc(-n2nc(C(C)(C)C)cc2NC(=O)Nc2cccc(-c3c[nH]c4nc(Cl)nc(N5CCOCC5)c34)c2)cc1` [Compound 30], for which the dTm in assay [1] is reported as 13.38 K; in [2] it was 6.34 K; in [3], 0.76 K; in [4] it was -0.06 K; in assay [5] it was -0.04 K; in assay [6], -0.31 K. Moreover, the dTm in assay [7] is on record as 2.91 K; in assay [8] it was 2.41 K; in assay [9], -1.11 K; in [10] it was -1.53 K; in assay [11] it was -3.24 K; in assay [12], 0.53 K.

In the case of `CC(C)(C)c1cccc(NC(=O)C2(C(=O)Nc3cccc(-c4c[nH]c5ncnc(N6CCOCC6)c45)c3)CC2)c1` [Compound 22], the dTm was 15.18 K in assay [1]; 3.52 K in [2]; 3.87 K in assay [3]; 1.37 K in [4]; -0.60 K in [5]; 3.68 K in [6]. The dTm in assay [7] is 17.31 K; in [8], 2.30 K; in assay [9] it was -1.29 K; in assay [10] it was -2.23 K; in assay [11], -0.26 K; in assay [12] it was -0.91 K.

Consider `COc1ccc(NC(=O)C2(C(=O)Nc3cccc(-c4c[nH]c5ncnc(N6CCOCC6)c45)c3)CC2)cc1` [Compound 16], for which the dTm is 7.29 K in assay [1]; 1.15 K in [2]; 0.47 K in assay [3]; 0.65 K in [4]; -0.98 K in assay [5]; 1.54 K in assay [6]. In addition, the dTm was 8.41 K in assay [7]; 1.06 K in assay [8]; 0.23 K in [9]; 0.0654 K in [10]; 0.44 K in assay [11]; 1.75 K in [12].

With `CC(=O)N1CCN(c2nc(Cl)nc3[nH]cc(-c4cccc(NC(=O)Nc5cc(C(C)(C)C)nn5-c5ccc(C)cc5)c4)c23)CC1` [Compound 31], the dTm in assay [1] is on record as 13.28 K; in assay [2] it was 6.63 K; in assay [3] it was 0.00835 K; in [4], 0.82 K; in assay [5] it was -0.66 K; in [6], -0.09 K. The dTm in [7] was 2.26 K; in assay [8] it was 2.73 K; in assay [9] it was 0.67 K; in assay [10], 3.32 K; in assay [11] it was -1.15 K; in assay [12], 0.59 K.

As for `Cc1cc(NC(=O)C2(C(=O)Nc3ccc(F)cc3)CC2)cc(-c2c[nH]c3ncnc(N4CCOCC4)c23)c1` [Compound 6], the dTm in assay [1] is given as 11.03 K; in assay [2], 3.25 K; in [3], 1.55 K; in [4], 2.20 K; in assay [5], 1.12 K; in assay [6], 1.97 K. For the same molecule, the dTm in assay [7] turned out to be 11.24 K; in assay [8], 1.02 K; in assay [9], 1.05 K; in [10] it was 0.83 K; in [11], 0.0071 K; in assay [12], 0.52 K.

As to `O=C(Nc1cccc(-c2c[nH]c3ncnc(N4CCOCC4)c23)c1)C1(C(=O)Nc2ccc(F)c(Br)c2F)CC1` [Compound 26], the dTm in [1] is 12.57 K; in assay [2], 3.21 K; in assay [3], 2.69 K; in assay [4], 5.85 K; in assay [5], -0.0242 K; in assay [6] it was 3.74 K. Besides, the dTm in [7] is reported as 13.99 K; in assay [8] it was 1.83 K; in assay [9], 0.88 K; in [10], 0.91 K; in assay [11], 0.25 K; in assay [12], -0.08 K.

In the case of `O=C(Nc1cccc(-c2c[nH]c3ncnc(N4CCOCC4)c23)c1)C1(C(=O)Nc2cccc3c2CCC3)CC1` [Compound 11], the dTm is listed as 10.54 K in assay [1]; 3.33 K in assay [2]; 3.04 K in [3]; 5.69 K in assay [4]; -0.08 K in assay [5]; 2.75 K in assay [6]. In addition, the dTm in assay [7] is 10.76 K; in [8] it was 1.38 K; in [9] it was 0.61 K; in assay [10] it was -0.59 K; in [11], -0.20 K; in [12], -0.63 K.

As for `Cn1cc(-c2c[nH]c3ncnc(N4CCOCC4)c23)cc1C#N` [PFE-360], the dTm is 7.58 K in [1]; 1.10 K in assay [2]; -0.19 K in assay [3]; -1.02 K in [4]; 1.66 K in [5]; 0.89 K in [6]. Also, the dTm was 5.72 K in assay [7]; 3.25 K in assay [8]; 0.58 K in assay [9]; -0.50 K in assay [10]; 0.56 K in [11]; 8.34 K in assay [12].

In the case of `C[C@@H]1CN(c2cc(-c3n[nH]c4ccc(OC5(C)CC5)cc34)ncn2)C[C@H](C)O1` [MLi2], the dTm is given as -0.79 K in assay [1]; 1.94 K in assay [2]; -0.13 K in [3]; 0.0276 K in assay [4]; 0.14 K in assay [5]; -0.06 K in assay [6]. For the same molecule, the dTm turned out to be 0.47 K in assay [7]; 0.50 K in [8]; 0.23 K in assay [9]; 0.31 K in assay [10]; 0.07 K in [11]; 1.29 K in [12].
